From patent publication US20260125334A1, “TREATMENT PROCESS FOR PFAS-CONTAINING COMPOUNDS” (priority 2023, published 2026)

Experiments:
[1] = Short chain PFAS standard treated with 2% quat: all PFAS (Example 5)
Method: A standard with approximately 1000 ppt each of PFOA, perfluoro-n-pentanoic acid (PFPeA), and perfluorobutane sulfonic acid (PFBS) was prepared via serial dilution and treated with 2% dimethyldioctadecylammonium bromide in technical triplicate. Samples were centrifuged and the liquid was filtered into a new centrifuge tube using a 0.45 micron syringe filter. Table 2 indicates the concentration of each PFAS after treatment.

[2] = Effect of treatment rate on PFAS removal from synthetic AFFF wastewater, NMR (Example 4)
Method: Dimethyldimyristylammonium Bromide was tested in synthetic AFFF wastewater to determine if removal efficiency of the PFAS is affected by treatment rate. The treatment compound was added at 2%, 3%, and 4% w/w loading to AFFF wastewater. Solids were separated out via centrifugation and the solution was analyzed by NMR. […] FIG. 5 is the NMR spectra of each solution after treatment. […] As quat loading increased, the total area under the peaks was reduced. In the sample with 4% dimethyldioctadecylammonium bromide loading, total peak area was reduced by 90%.

[3] = PFAS removal kinetics in PFAS-contaminated field sample, LC-QTOF (Example 6); details: 0.01% treatment; aliquots at 0, 5, 10, 30, 90 minutes
Method: To determine PFAS removal kinetics, a PFAS-contaminated field sample was treated with dimethyldioctadecylammonium bromide. Aliquots were pulled at timed intervals and tested for remaining PFAS content. To a polypropylene bottle, 1000 mL of approximately 4 ppm PFAS-contaminated water was added to a 1 L HDPE bottle with a Teflon stir bar. The sample was stirred at 500 RPM for 10 minutes prior to the start of the experiment. To a 50 mL centrifuge tube, 20 mL aliquots were collected at 0, 5, 10, 30, and 90 minutes following treatment with 0.01%. Each sample was centrifuged to remove any remaining solids and passed through 0.45 micron filter prior to analysis by LC-QTOF. […] Subsequent PFAS removal was noted but minimal.

Row | Compound | Reduction in all PFAS concentrations [1] [%] | Solubility in water (Solubility in water) | Reduction of total NMR peak area ([2]; 4% w/w loading) [%] | Remaining PFAS content between the T=0 and T=5 sample [3] | Concentration of remaining PFAS as concentration of quaternary ammonium compound increased ([2]; 2%, 3%, and 4% w/w loading)
1 | CCCCCCCCCCCCCCCCCC[N+](C)(C)CCCCCCCCCCCCCCCCCC.[Br-] [Dimethyldioctadecylammonium bromide, dimethyldioctadecylammonium bromide] | > 99.87 | nearly insoluble in water | 90 | rapid decrease | –
2 | CCCCCCCCCCCCCC[N+](C)(C)CCCCCCCCCCCCCC.[Br-] [Dimethyldimyristylammonium bromide, dimethyldimyristylammonium bromide] | – | – | – | – | decreased
